The values that follow come from patent US20240075046A1 (priority 2020, published 2024).

Data set [1] concerns the target T1, ERα (Homo sapiens, UniProt P03372). The experiment in a line: Endometriosis model, estrogen receptor western blot in 12Z cell line. It counts as cell-based. Also noted: endogenous in cells; host or cells: 12Z. The note with it: 5 h, CF2 0.125 to 0.75 μg/mL. For orientation: In western blotting, separated proteins are transferred to a membrane and probed.
Data set [2] has as its system AR, CDC25, GREB1, PGR and TFF1. The data set can be described thus: Expression of genes upregulated by estradiol binding to ERα, real-time PCR in MCF7 cells. It counts as cell-based. The note with it: 18 hours, FIGS. 10D-10H.
Data set [3] deals with T1, ERα. The experiment in a line: ERα protein level, western blot in MCF7 cells. It counts as cell-based. Also noted: The intensity of ERα in the nucleus of MCF7 cells was reduced with time; endogenous in cells; host or cells: MCF7. The note with it: 18 hours, single cannabinoids vs 1:25:1,000 combination, FIGS. 10A-10B.
The test system of data set [4] is Immortalized Human Endometriotic Cell Line (12Z). The experiment in a line: Endometriosis model, Annexin V assay, cell viability. It counts as cell-based. The note with it: 12Z cells; 24 hours; CF2 concentration of 1 μg/mL. Here is the method:
To determine the therapeutic effects of CF2 on endometriosis, an Immortalized Human Endometriotic Cell Line (12Z) was used. Cells were incubated in a 12 well plate, each containing 1×10^6 cells. The cells were treated with either vehicle, or CF2 (0.125 to 1 μg/mL each) for 24 hours. Apoptosis was assessed using the Annexin V assay as detailed above. Data are presented as mean±S.E.M (n=3) and statistically analyzed by two-way ANOVA (*p<0.05, ****p<0.0001).

Data set [5] deals with MCF7 cells. It counts as cell-based.
A further data set has as its system ESR1. The experiment in a line: ESR1 expression level, real-time PCR in MCF7 cells. It counts as cell-based. The note with it: 18 hours, FIG. 10C. The procedure:
The expression level of ESR1, the gene encoding for ERα, using real-time PCR following 18 hours of CANN14 treatment was examined. RNA was extracted from 5×10^5 cells and isolated using TRI reagents (Sigma, UK) according to the manufacturer's protocol. The RNA was reverse transcribed with Maxima First Strand cDNA synthesis kit (Life Technologies, Burlington, Canada) and RT-qPCR was preformed using Taq-Man (Life Technologies Ltd, UK). The fold change of calculated compared to the housekeeping gene 18S, using the formula 2^(−ΔΔCT). DMSO was used as a control. […] The activity of ERα as a transcriptional regulator by assessing its binding to Estrogen Response Elements (ERE) following CANN14 treatment was then examined. MCF7 cells were transfected with ERE-luciferase plasmid and luciferase activity was measured.
Next, the effect of the three identified cannabinoids on ERα expression and activity was examined. ERα protein level in MCF7, T47D, and ZR-75-1 cells was measured following 18 hours treatment with either THC, CBN or CF2, separately or in combinations (FIGS. 7A-7B, 8A-8B, and 9A-9B, respectively). […] ESR1 expression level was lowest following treatment with CF2 alone (FIG. 10C).
(In qPCR the cycle at which signal appears reflects the starting amount.)

The subject of another data set is T47D cells. The data set can be described thus: Apoptosis by Annexin V/PI staining, flow cytometry. The note with it: CANN14 4 μg/ml, tamoxifen 5 μM or combination. It counts as cell-based. For orientation: Flow cytometry measures light scatter and fluorescence of single cells or particles in a stream.
Data set [6] relates to cleaved caspase-3 in MCF7 cells. The experiment in a line: Cleaved caspase-3 western blot. It counts as cell-based. The note with it: 8 hours, CANN14 4 μg/ml, tamoxifen 5 μM, relative to DMSO control.
The subject of data set [7] is MCF7 cells. The note with it: extracts 4 μg/ml, 24 hours, tamoxifen 5 μM, alone or combined.
In the next data set the test system is ZR-75-1 cells. The experiment in a line: Apoptosis by Annexin V/PI staining, flow cytometry. The format is cell-based. The note with it: CANN14 4 μg/ml, tamoxifen 5 μM or combination.
In data set [8] the test system is cleaved caspase-3 in T47D cells. The experiment in a line: Cleaved caspase-3 western blot. The format is cell-based. The note with it: 8 hours, CANN14 4 μg/ml, tamoxifen 5 μM, relative to DMSO control.
In data set [9] the test system is cleaved caspase-3 in ZR-75-1 cells. The data set can be described thus: Cleaved caspase-3 western blot. The format is cell-based. The note with it: 8 hours, CANN14 4 μg/ml, tamoxifen 5 μM, relative to DMSO control.
Data set [10] relates to MCF7 cells. The experiment in a line: In-vivo mouse model, subcutaneous MCF7 ectopic tumor. The note with it: nude mice, MCF7 tumors; IP three times weekly; CANN14 25 mg/kg, tamoxifen 2 mg/kg.

“Also recorded” adds a separate entry of the source.

T1 sequence (P03372 whole entry): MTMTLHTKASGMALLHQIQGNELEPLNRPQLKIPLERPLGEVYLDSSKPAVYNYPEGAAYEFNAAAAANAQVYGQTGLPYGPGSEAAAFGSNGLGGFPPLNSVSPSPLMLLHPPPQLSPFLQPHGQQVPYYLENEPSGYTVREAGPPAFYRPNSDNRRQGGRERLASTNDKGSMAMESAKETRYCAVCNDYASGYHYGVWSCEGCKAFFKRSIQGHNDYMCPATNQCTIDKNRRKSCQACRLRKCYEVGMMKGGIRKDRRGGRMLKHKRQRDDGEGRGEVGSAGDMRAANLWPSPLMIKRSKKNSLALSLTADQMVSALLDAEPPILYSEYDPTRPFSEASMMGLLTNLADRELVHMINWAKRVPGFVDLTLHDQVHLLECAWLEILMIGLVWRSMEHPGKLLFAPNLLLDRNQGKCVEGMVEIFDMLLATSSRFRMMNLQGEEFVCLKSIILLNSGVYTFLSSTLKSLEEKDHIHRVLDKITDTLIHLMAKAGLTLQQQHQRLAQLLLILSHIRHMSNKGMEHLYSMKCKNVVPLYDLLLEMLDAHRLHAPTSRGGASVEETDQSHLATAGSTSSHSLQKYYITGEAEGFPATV

Regarding `CCCCCc1cc(O)c(C/C=C(/C)CCC=C(C)C)c(O)c1OC(C)=O` [CF2], the ERα protein level result is recorded as “significantly reduced; also recorded: reduces” at ERα [1] and “significantly reduced the most; also recorded: reduces ERα protein level” at ERα [3]. In data set [2], the “expression levels of ERα target genes” value is “reduced to the lowest level compared to the control”. The “cell viability (% Live cells)” value in data set [4] is recorded as “statistically significant reduction in cell viability; also recorded: reduces cell viability”. For the same compound, in the data set on MCF7 cells [5], the “apoptotic effect compared with the original 1:25:1,000 combination of CF2, CBN, and THC” value was “same apoptotic effect as the original combination of the three phytocannabinoids”. The “apoptotic effect compared with the CANN14 whole extract” value in the data set on MCF7 cells [5] (MCF7 cells, higher concentrations of CF2, in combination with tamoxifen, FIG. 4G) is on record as “significantly superior to the CANN14 whole extract”. For the same compound, in the data set on ESR1, the ESR1 expression level entry is “lowest”.

With `CCCCCc1cc(O)c2c(c1)OC(C)(C)c1ccc(C)cc1-2` [CBN, cannabinol, reference compound], the “expression levels of ERα target genes” value in data set [2] is “reduced to the lowest level compared to the control”.

With `CC/C(=C(\c1ccccc1)c1ccc(OCCN(C)C)cc1)c1ccccc1` [tamoxifen], the “% Apoptosis” value in the data set with T47D cells was “not affected”; in the data set with ZR-75-1 cells it was “not affected”; with MCF7 cells [5] (MCF7 cells, CANN14 4 μg/ml, tamoxifen 5 μM or combination) it was “not affected”. Besides, the “cleaved caspase-3, normalized intensity (treatment/control)” value in [6], in data set [8] and in data set [9] was “increased induction of cleaved caspase-3” in each case. Besides, the “% Cell death” value with MCF7 cells [7] was “did not affect the viability of the cells”. For the same compound, the “ectopic tumor volume / tumor size” value in the data set on MCF7 cells [10] is on record as “trend of smaller tumor sizes”.
